According to US9017938B2, “Use of microrna-199b-5p in medical and diagnostic field” (Advanced Accelerator Applications, priority 2009, dated 2015):

Tests used:
MB cell lines = assay: AZA treatment, miR-199b-5p expression by real-time PCR; type: cell-based; conditions: two cell lines (Med8 and UV238) of a panel of five; 5 μM, 72 h
Experimental: Five MB cell lines (d283, Daoy, med8a, ons76, uw228) were grown in DMEM supplemented with 10% FBS and antibiotics. Upon reaching 85% confluence, the media was spiked with 5-aza-deoxycytidine (AZA) (Sigma) to a final concentration of 5 μM. Over 72 h the media was replaced daily with fresh AZA-enhanced medium. RNA was extracted using a standard phenol (TRIzol)-chloroform protocol.

HES1 = assay: Western blotting of HES1 protein; type: cell-based, human; conditions: Daoy cell line, DAPT 12 h
Experimental: Thirty μg cytosolic or nuclear lysates were loaded onto 12% polyacrilamide gels, and blotted onto polyvinylidene difluoride membranes (PVDF; BioRad, Milan, Italy). The membranes were then incubated with anti-HES1 (kind gift of Dr. Tetsuo Sudo TORAY Industries, Tebiro Kamakura, Japan), a polyclonal rabbit antibody (1:500), an anti-GSK3-β (B&D Bioscience) monoclonal antibody (1:2500), an anti-c-Myc polyclonal rabbit antibody (1:200) (Santa Cruz Biotechnology, Santa Cruz, Calif., USA), an anti-GABRA6 antibody (Santa Cruz Biotechnology, Santa Cruz, USA) (1:200), an anti-MATH3 antibody (Santa Cruz Biotechnology, Santa Cruz, USA) (1:200) and an anti-cyclin D1 (1:200) polyclonal rabbit antibody (Cell Signaling). An anti-β-actin antibody (1:1.000) (Sigma) was used as the control for equal loading of cytosolic lysates and a polyclonal anti-β-laminin antibody (1:50) (Santa Cruz Biotechnology, Santa Cruz, Calif., USA) for equal loading of nuclear lysates.

Daoy cell line [1] = assay: DAPT treatment, miR-199b expression by real-time PCR; type: cell-based, human; conditions: 10 μM DAPT, 12 h, relative to time 0
Experimental: The reverse transcriptase (RT) reactions contained 40 ng RNA sample, 50 nM stem-loop RT primer, 1×RT buffer (P/N:4319981, Applied Biosystems), 0.25 mM each of dNTPs, […] MultiScribe RT (P/N: 4319983, Applied Biosystems) and […] RNase inhibitor (P/N: N8080119; Applied Biosystems). The 15 μl reactions were incubated in an Applied Biosystems 9700 Thermocycler for 30 min at 16° C., 30 min at 42° C., 5 min at 85° C., and then held at 4° C.
Real-time PCR was performed using a standard TaqMan PCR kit protocol on an Applied Biosystems 7900HT Sequence Detection System. The 20 μl PCR mix included 2 μl RT product, 10 μl TaqMan Universal PCR Master Mix (Applied Biosystems), […] TaqMan probe. The reactions were incubated in a 96-well plate at 95° C. for 10 min, followed by 60 cycles of 95° C. for 15 s and 60° C. for 1 min.
(§1) N—[N-(3,5-difluorophenacetyl)-l-alanyl]-S-phenylglycine t-butylester (DAPT (Sigma-Aldrich) treatment of the Daoy cells was performed as follows: the cells were plated and allowed to grow overnight in medium containing 10% FBS. The next morning, the medium was replaced with medium containing 10 μM DAPT and replaced each 4 h with this medium. The expression assays was performed after 0, 6, 12, 24 h of treatment […], using control experiments including the corresponding volume of DMSO as vehicle.

Daoy cell line [2] = assay: DAPT treatment, stem-cell gene expression by real-time PCR; type: cell-based, human; conditions: Daoy + DAPT 12 h
Experimental: Total RNA was extracted from the cell lines using the Trizol reagent (Invitrogen). Synthesis of cDNA from total RNA (4 μg) was performed using a Super Script II First Strand Kit (Invitrogen). Real-time quantitative PCR was performed using standard protocols with an Applied Biosystems ABI PRISM 7900HT Sequence Detection system. To calculate the relative gene expression of the miR-199b-5p precursor, the relative amounts of each pre-miRNA were normalized to U6 miRNA; the other genes were normalized using the β-actin gene. Real-time PCR primers for each gene were designed using Primer Express software version 2.0 (Applied Biosystems). The primer sequences are available upon request.
as §1

| Compound | miR-199b-5p expression (MB cell lines) | HES1 protein (Western blot) (HES1) | increase of miR-199b-5p level (Daoy cell line [1]) | CD 133 expression 2^-DCt (Daoy cell line [2]) | HMGA1 expression 2^-DCt (Daoy cell line [2]) | HMGB3 expression 2^-DCt (Daoy cell line [2]) | ILF3 expression 2^-DCt (Daoy cell line [2]) | KLF5 expression 2^-DCt (Daoy cell line [2]) | MYBL2 expression 2^-DCt (Daoy cell line [2]) | Nanog expression 2^-DCt (Daoy cell line [2]) | Oct4 expression 2^-DCt (Daoy cell line [2]) | PDGFR-A expression 2^-DCt (Daoy cell line [2]) | PDGFR-B expression 2^-DCt (Daoy cell line [2]) | SPARC expression 2^-DCt (Daoy cell line [2]) | TCF7L1 expression 2^-DCt (Daoy cell line [2]) | TEAD4 expression 2^-DCt (Daoy cell line [2]) | ZIC1 expression 2^-DCt (Daoy cell line [2]) | c-Myc expression 2^-DCt (Daoy cell line [2]) |
| --- | --- | --- | --- | --- | --- | --- | --- | --- | --- | --- | --- | --- | --- | --- | --- | --- | --- | --- |
| Nc1ncn([C@H]2C[C@H](O)[C@@H](CO)O2)c(=O)n1 [5-aza-deoxycytidine] | significant up-regulation |  |  |  |  |  |  |  |  |  |  |  |  |  |  |  |  |  |
| C[C@H](NC(=O)Cc1cc(F)cc(F)c1)C(=O)N[C@H](C(=O)OC(C)(C)C)c1ccccc1 [DAPT, N—[N-(3,5-difluorophenacetyl)-l-alanyl]-S-phenylglycine t-butylester] |  | down-regulation | 9 fold | 0.001237 | 0.004879 | 0.005577 | 0.04252 | 0.02368 | 0.003932 | 0.0004488 | 0.0007941 | 0.0000015 | 0.0000606 | 0.07977 | 0.0001026 | 0.005176 | 0.0002784 | 0.05427 |
